Each structure is given as a SMILES string. In brackets after ≈: the same amount, converted by molar mass.

The source of these data is paper PMC6981581, “N-(2-Arylmethylthio-4-Chloro-5-Methylbenzenesulfonyl)amide Derivatives as Potential Antimicrobial Agents—Synthesis and Biological Studies” (International Journal of Molecular Sciences, 2019).

Assay type in all cases: cell-based
For assay [1], the system named is Enterococcus faecalis ATCC 11420. Put plainly: Broth dilution MIC/MBC, reference strain. The note with it: for MBC / MIC: Enterococcus faecalis, ATCC11420. On the procedure:
(§1) The tests were carried out using a serial dilution method, allowing the determination of MIC (minimal concentration inhibiting bacterial growth), MBC (minimal bactericidal concentration), and MFC (minimal fungicidal concentration) values.
(§2) Antimicrobial activity was tested using the following reference strains: Staphylococcus aureus ATCC 6538 (MSSA), Staphylococcus aureus ATCC 43300 (MRSA), Staphylococcus epidermidis PCM 2118, Escherichia coli ATCC 11229, Pseudomonas aeruginosa ATCC 15442, Proteus vulgaris NCTC 4635, Enterococcus faecalis ATCC 11420, and Candida albicans ATCC 10231.
(§3) A broth dilution method was used to determine minimal inhibitory concentration (MIC) for tested compounds as recommended by Clinical Laboratory Standards Institute (CLSI) guidelines. Investigated compounds were diluted in Mueller Hinton Broth 2 (Sigma-Aldrich Co., St. Louis, MO, USA) in polypropylene 96-well plates and initial inoculum 5 × 10^5 cfu/mL were incubated at 37 °C for 18 h. MIC was taken as the lowest drug concentration at which an observable growth was inhibited. […] The loopful (10 µL) of the tested sample was transferred to Tryptic Soy Agar (TSA, Becton-Dickinson, Franklin Lakes, NJ, USA) and incubated at 37 °C for 48 h. […] Drug Solutions were made fresh on the day of the assay. All experiments were performed in triplicate.

The test system of assay [2] is Pseudomonas aeruginosa ATCC 15442. Put plainly: Broth dilution MIC/MBC, reference strain. The note with it: for MBC / MIC: Pseudomonas aeruginosa, ATCC15442. The procedure:
as §1, §2, §3
(In general: Dilution methods test growth across graded concentrations, often in twofold steps.)

The test system of assay [3] is Staphylococcus aureus ATCC 6538 (MSSA). Put plainly: Broth dilution MIC/MBC, reference strain. The note with it: for MBC / MIC: Staphylococcus aureus. On the procedure: as §1, §2, §3
In assay [4] the test system is Escherichia coli ATCC 11229. Put plainly: Broth dilution MIC/MBC, reference strain. Particulars: for MBC / MIC: Escherichia coli, ATCC11229. The procedure:
as §1, §2, §3

In assay [5] the test system is Proteus vulgaris NCTC 4635. Put plainly: Broth dilution MIC/MBC, reference strain. Particulars: for MBC / MIC: Proteus vulgaris, NCTC4635. The procedure:
as §1, §2, §3

Assay [6] relates to Staphylococcus epidermidis PCM 2118. Put plainly: Broth dilution MIC/MBC, reference strain. Particulars: for MIC / MBC: Staphylococcus epidermidis; for MIC: PCM2118; for MBC: PCM2118, S. epidermidis PCM 2118. The procedure:
as §1, §2, §3

The subject of assay [7] is Staphylococcus aureus ATCC 43300 (MRSA). Put plainly: Broth dilution MIC/MBC, reference strain. The note with it: for MBC / MIC: Staphylococcus aureus. The procedure: as §1, §2, §3
Assay [8] concerns Candida albicans ATCC 10231. Put plainly: Broth dilution MIC/MFC, reference fungal strain. Particulars: for MFC / MIC: Candida albicans, ATCC10231. On the procedure:
as §1, §2, §3

Turning to `Cc1cc(S(=O)(=O)NC(=O)CCC2CCCCC2)c(SCc2ccccc2)cc1Cl` [Compound 8, N-(2-Benzylthio-4-chloro-5-methylbenzenesulfonyl)-3-cyclohexylpropanamide], the MBC (as a rule, the lowest tested concentration that kills the bacteria rather than only halting them) in assay [1] was above 128 µg/mL; in assay [2] it was above 128 µg/mL; in assay [3], above 128 µg/mL; in assay [4] it was above 128 µg/mL; in assay [5] it was above 128 µg/mL; in assay [6] it was 32 µg/mL (≈ 68.7 µM). Moreover, the minimal bactericidal concentration (MBC) in assay [7] is above 128 µg/mL. Further, the MIC (as a rule, the lowest concentration that inhibits growth of the organism) in assay [1] was 128 µg/mL (≈ 275 µM); in assay [2] it was 128 µg/mL (≈ 275 µM); in assay [3], 32 µg/mL (≈ 68.7 µM); in assay [4], 128 µg/mL (≈ 275 µM); in assay [5] it was 64 µg/mL (≈ 137 µM); in assay [6], 8 µg/mL (≈ 17.2 µM). The MIC was 16 µg/mL (≈ 34.3 µM) in assay [7] and 64 µg/mL (≈ 137 µM) in assay [8]. Besides, in assay [8], the MFC (usually the lowest tested concentration that kills the fungus rather than only halting it) stood at 128 µg/mL (≈ 275 µM).
Take `Cc1cc(S(=O)(=O)NC(=O)C=Cc2ccccc2)c(SCc2ccccc2)cc1Cl` [Compound 13, N-{[2-(Benzylthio)-4-chloro-5-methylphenyl]sulfonyl}cinnamamide]: the MBC/MIC in assay [1] (E. f. ATCC 11420) is recorded as above 1; in assay [2] (P. a. ATCC 15442) it was above 1; in assay [3] (S. a. ATCC 6538) it was above 4; in assay [4] (E. c. ATCC 11229), above 1; in assay [5] (P. v. NCTC 4635), above 1; in assay [6] (S. e. PCM 2118) it was above 4. Also, the MBC/MIC in assay [7] (S. a. ATCC 43300) is reported as above 4. Also, the MBC in assay [1], in assay [2], in assay [3], in assay [4], in assay [5] and in assay [6] was above 128 µg/mL throughout. In assay [7], this compound displayed an MBC above 128 µg/mL. Moreover, the MIC in assay [1] was above 128 µg/mL; in assay [2], 128 µg/mL (≈ 279 µM); in assay [3] it was 32 µg/mL (≈ 69.9 µM); in assay [4] it was 128 µg/mL (≈ 279 µM); in assay [5] it was 128 µg/mL (≈ 279 µM); in assay [6], 32 µg/mL (≈ 69.9 µM). Moreover, the results for the MIC in assay [7] and in assay [8] were 32 µg/mL (≈ 69.9 µM) and 64 µg/mL (≈ 140 µM), respectively. Further, the MFC/MIC in assay [8] (C. a. ATCC 10231) worked out at 2. The same compound had an MFC in assay [8] of 128 µg/mL (≈ 279 µM).
